Laboratory results from patent EP0465913B1, “Diaminotrifluoromethylpyrimidine derivatives, process for their production and phospholipase A2 inhibitor containing them” (ISHIHARA SANGYO KAISHA, LTD., priority 1990, dated 1992).
Read-outs that look alike come from different tables or passages of the source.

Legend:
[1] = test system: increased vascular permeability induced by acetic acid; test: Inhibitory activity on increased vascular permeability induced by acetic acid (Mouse Whittle method, method C); assay type: in vivo, ddy male mice; conditions: amount of leaked dye
Description: Using ddy male mice, each test group consisted of 4 or 5 mice. A test compound was mixed with Tween 80 [polyoxyethylenesorbitan monooleate (manufactured by Nacalai Tesque K.K.)], and distilled water was added thereto to obtain a 2% Tween 80 suspension, or it was dissolved in the form of a salt in water to obtain an aqueous solution. A test compound was orally administered, and upon expiration of one hour from the administration, 0.7% acetic acid was intraperitonially injected to each mouse in an amount of 0.1 ml/10 g, and at the same time, 2% brilliant blue was intravenously injected into the tail vein in an amount of 0.1 ml/20 g. Thirty minutes after the injection of brilliant blue, the cervical vertebrae were dislocated under anesthesia by chloroform, and the abdorminal cavity was washed with 5 ml of a physiological saline. The washing solution was subjected to centrifugal separation at 3,000 rpm for 10 minutes, and the amount of the dye in the supernatant was measured at 600 nm absorbance by Microplate ELISA Reader (Model 2550EIA Reader, manufactured by Bio-Rad Laboratories). The inhibition rate of the amount of leaked dye in the group in which a test compound was administered relative to the control group was obtained by the following formula. Inhibition rate (%) = (l -(C)/(D)) x 100 [formula] • C: Amount of leaked dye in the group to which a test compound was administered. • D: Amount of leaked dye in the control group.

[2] = target: T1, Porcine pancreatic phospholipase A2 (Sus scrofa, UniProt P00592); test: Phospholipase A2 inhibitory activity, method A (egg yolk lecithin substrate); assay type: biochemical; conditions: 1,000 ppm, 37°C for 30 minutes, read-out: % inhibition of PLA2 (1,000 ppm)
T1 construct: purchased Boehringer Mannheim·Yamanouchi K.K. 161454·122416
T1 sequence (P00592 23-146): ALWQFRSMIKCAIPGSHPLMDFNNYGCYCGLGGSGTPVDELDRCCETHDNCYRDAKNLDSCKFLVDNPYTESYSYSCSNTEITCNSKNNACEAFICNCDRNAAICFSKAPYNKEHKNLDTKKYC
Description: To 10 mg of egg yolk lecithin (manufactured by Wako Pure Chemical Industries Ltd.), 1 ml of glycerine, 2 ml of a 50 mM Tris-HCl buffer solution (pH7.5) [Tris(hydroxymethyl)aminomethane (manufactured by Nacalai Tesque K.K.) was adjusted to pH7.5 with hydrochloric acid], 0.5 ml of a 150 mM calcium chloride solution (calcium chloride was dissolved in a 50 mM Tris-HCl buffer solution) and 0.5 ml of a 0.05% Triton-X100 (manufactured by Nacalai Tesque K.K.) solution (Triton-X100 was dissolved in a 50 mM Tris-HCl buffer solution), were added and dispersed by an agate mortar or dispersed by an ultrasonic processor (Model W-225, manufactured by Heat System-Ultrasonics, Inc.) for 5 minutes (30W) to obtain a substrate.
Porcine pancreatic phospholipase A2 [(161454·122416) manufactured by Boehringer Mannheim·Yamanouchi K.K.] was used.
To a 96 well microtitration plate (flat bottom, manufactured by Sumitomo Bakelite Medical Co., Ltd.), 40 µl of the substrate, 5 µl of a solution prepared by dissolving 10 mg of a test compound in 500 µl of dimethylsulfoxide, followed by an addition of 500 µl of a 50 mM Tris-HCl buffer solution, and 5 µl of an enzyme solution of 20 ng/ml (prepared by diluting the enzyme in a 50 mM Tris-HCl buffer solution), were added and reacted at 37°C for 30 minutes. After termination of the reaction, the released free fatty acid was quantitatively analyzed in accordance with the ACS-ACOD (acyl CoA synthetase-acyl CoA oxidase) method [a kit of NEFA C test wako (manufactured by Wako Pure Chemical Industries, Ltd.) was used]. The quantitative analysis was made by means of Microplate ELISA Reader (Model 2550EIA Reader, manufactured by Bio-Rad Laboratories) at a wavelength of 540 nm. Separately, such experiments as mentioned above, were carried out at various concentrations (2 µg/ml, 1 µg/ml and 0.5 µg/ml) of phospholipase A2 without a test compound. Then, the concentration of the free fatty acid versus the concentration of phospholipase A2 was plotted.
From this standard curve, the apparent concentration of phospholipase A2 in the case with a test compound, was read. Then, the percent inhibition of the enzyme was calculated by the following formula. Percent inhibition (%) = (l -(A)/(B)) x 100 [formula] • A: Apparent enzyme concentration when a test compound is added. • B: True enzyme concentration when a test compound is added.

[3] = target: T1, Porcine pancreatic phospholipase A2; test: Phospholipase A2 inhibitory activity, method B (L-α-dipalmitoylphosphatidylcholine substrate); assay type: biochemical; conditions: 1,000 ppm, 37°C for 30 minutes, read-out: % inhibition of PLA2 (1,000 ppm)
Outline: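 Substrate: L-α-dipalmitoylphosphatidylcholine/sodium cholate mixed micelles in 250 mM NaCl, 100 mM Tris-HCl pH 8.0. Enzyme (10 µg/ml stock) incubated with compound in buffer containing CaCl2 and BSA, 30 min at 37 °C. Released free fatty acid measured by ACS-ACOD at 540 nm; % inhibition derived from apparent enzyme concentration read off a standard curve.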

[4] = Acute toxicity, intravenous injection (LD50); assay type: in vivo; conditions: mouse, in vivo, ddy male mice, sodium salt, mortality over one week
Description: Administration route: Intravenous injection
Using ddy male mice (body weight: 25 - 30 g), each test group consisted of 5 mice. A test compound was dissolved in the form of a sodium salt in a physiological saline or in a 5% glucose aqueous solution, and intravenously injected in an amount of 0.1 ml/10 g body weight. After the injection, the mortality rate was obtained over one week, and the median lethal dose LD50 (mg/kg) was determined.

carrageenin edema = test: Inhibitory activity on carrageenin edema; assay type: in vivo, Wistar male rats; conditions: po, 3 h; rat; dose 100 mg/kg orally; paw swelling volume three hours after carrageenin; read-out: Inhibition rate (%)
Outline: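 Male Wistar rats (about 100 g, 5 per group) dosed orally at 200, 100, 50 or 25 mg/kg as 2% Tween 80 suspension or aqueous salt solution, 1 h before subplantar injection of 0.1 ml 1% λ-carrageenin. Paw swelling measured at 3 h; % inhibition versus control group mean swelling.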

[5] = test system: experimental acute pancreatitis model; test: Effects against acute pancreatitis (Test Example 8, closed duodenal loop method, lesion scores); assay type: in vivo, Crj-CD male rats; conditions: sodium salt, 6 hours after ventrotomy; for inhibition in vivo at 10 mg/kg: Rattus norvegicus, 10 mg/kg single intravenous injection
Outline: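 Closed duodenal loop pancreatitis in male Crj-CD rats (n=3) under halothane/nitrous oxide; sodium-salt compounds given i.v. into tail vein by continuous infusion or bolus, controls untreated. At 6 h, four pancreatic lesions scored 0-3; inhibition % of total and hemorrhagic scores calculated versus control.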

[6] = test system: increased vascular permeability induced by acetic acid; test: Inhibitory activity on increased vascular permeability induced by acetic acid (Rat Whittle method, method D); assay type: in vivo, SD (Crj: CD) male rats; conditions: dose 12.5 mg/kg orally, amount of leaked dye
Description: Using SD (Crj: CD) male rats, each test group consisted of from 3 to 5 rats. A test compound was mixed with Tween 80 [polyoxyethylenesorbitan monooleate (manufactured by Nacalai Tesque K.K.)], and distilled water was added thereto to obtain a 2% Tween 80 suspension, or it was dissolved in the form of a salt in water to obtain an aqueous solution. A test compound was orally administered, and one hour later, 0.7% acetic acid was intraperitonially injected to each rat in an amount of 0.05 ml/10 g, and at the same time, 2% brilliant blue was intravenously injected into the tail vein in an amount of 0.05 ml/20 g. Thirty minutes after the injection of brilliant blue, the cervical vertebrae were dislocated under anesthesia by chloroform, and the abdorminal cavity was washed with 10 ml of a physiological saline. The washing solution was subjected to centrifugal separation at 3,000 rpm for 10 minutes, and the amount of the dye in the supernatant was measured at 600 nm absorbance by Microplate ELISA Reader (Model 2550EIA Reader, manufactured by Bio-Rad Laboratories). The inhibition rate of the amount of leaked dye in the group to which a test compound was administered relative to the control group was obtained from the following formula, and the results are shown in Table 9. Inhibition rate (%) = (l -(C)/(D)) x 100 [formula] • C: Amount of leaked dye in the group to which a test compound was administered. • D: Amount of leaked dye in the control group.

CCOC(=O)NC(=S)Nc1cc(C(F)(F)F)cnc1NS(C)(=O)=O [compound 18]
Inhibition rate (%) ([1]; dose 25 mg/kg orally): 49% | inhibition at 1000 ppm [2]: 64% | inhibition at 1000 ppm [3]: 49% | LD50 at 168 h [4]: > 150 mg/kg

CCCS(=O)(=O)Nc1ncc(C(F)(F)F)cc1NC(=O)C(F)(F)C(F)(F)F [compound 22]
Inhibition rate (%) ([1]; dose 10 mg/kg orally): 39% | inhibition in vivo at 100 mg/kg (carrageenin edema): 29% | inhibition at 1000 ppm [2]: 74% | LD50 at 168 h ([4]; iv): > 100 mg/kg

CCCCCCCCS(=O)(=O)Nc1ncc(C(F)(F)F)cc1NC(=O)C(F)(F)C(F)(F)F [compound 23]
Inhibition rate (%) ([1]; dose 20 mg/kg orally): 33% | inhibition in vivo at 100 mg/kg (carrageenin edema): 30% | inhibition at 1000 ppm [2]: 37%

O=C(NNc1ncc(C(F)(F)F)cc1NC(=O)C(F)(F)C(F)(F)F)c1ccccc1 [compound 39]
Inhibition rate (%) ([1]; dose 20 mg/kg orally): 53% | inhibition in vivo at 100 mg/kg (carrageenin edema): 25% | inhibition at 1000 ppm [2]: 41%

C=CC(=O)Nc1cc(C(F)(F)F)cnc1NS(=O)(=O)CC [compound 49]
Inhibition rate of hemorrhagic lesions (%) ([5]; 42 mg/kg continuous intravenous injection): 68% | Inhibition rate (%) ([1]; dose 20 mg/kg orally): 50% | inhibition at 1000 ppm [2]: 30% | LD50 at 168 h ([4]; iv): 175 mg/kg

C/C=C/C(=O)Nc1cc(C(F)(F)F)cnc1NS(C)(=O)=O [compound 55, N-(2-methylsulfonylamino-5-trifluoromethyl-3-pyridyl)crotonamide]
Inhibition rate of hemorrhagic lesions (%) ([5]; 40 mg/kg continuous intravenous injection): 65% | Inhibition rate (%) ([1]; dose 25 mg/kg orally): 59% | inhibition at 1000 ppm [2]: 49% | LD50 at 168 h ([4]; iv): 237 mg/kg

CS(=O)(=O)Nc1ncc(C(F)(F)F)cc1NC(=O)c1ccccc1F [compound 57]
Inhibition rate of hemorrhagic lesions (%) ([5]; 20 mg/kg continuous intravenous injection): 60% | Inhibition rate (%) ([1]; dose 20 mg/kg orally): 43% | inhibition in vivo at 100 mg/kg (carrageenin edema): 35% | inhibition at 1000 ppm [2]: 57% | LD50 at 168 h ([4]; iv): 83 mg/kg

CC(=O)OCC(=O)Nc1cc(C(F)(F)F)cnc1NS(C)(=O)=O [compound 63, N-(2-methylsulfonylamino-5-trifluoromethyl-3-pyridyl)acetoxyacetamide]
inhibition in vivo at 10 mg/kg ([5]; read-out: Inhibition rate of hemorrhagic lesions (%)): 83% | inhibition in vivo at 10 mg/kg ([5]; read-out: Inhibition rate of pancreatitis lesions (%)): 66% | Inhibition rate (%) ([1]; dose 10 mg/kg orally): 41% | inhibition at 1000 ppm [3]: 34% | LD50 at 168 h ([4]; iv): > 130 mg/kg

CS(=O)(=O)Nc1ncc(C(F)(F)F)cc1NC(=O)OC1CCCCC1 [compound 121]
inhibition at 1000 ppm [3]: 90% | Inhibition rate (%) [6]: 31%
